Measurements as given in PubChem BioAssay (NCI).
Several values for one entry are separate records, joined by “and”; a condition that tells them apart may be missing. Equal values may be shown once.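 Values below derive from 48-hour exposures of cells grown in 96-well plates, with endpoints linearly interpolated between the two concentrations bracketing the appropriate inhibition level. At the GI50, growth is halved. TGI marks complete inhibition of growth.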

Assays:
Test in all cases: NCI anticancer screen, dose series, 48 h
XF 498 CNS = system: XF 498 CNS
SNB-78 CNS = system: SNB-78 CNS
KM20L2 colon = system: KM20L2 colon
M19-MEL melanoma = system: M19-MEL melanoma
HOP-18 NSCLC = system: HOP-18 NSCLC
RXF-631 renal = system: RXF-631 renal
MDA-N = system: MDA-N

O=C1C(Cl)=C(Cl)C(=O)N1c1ccccc1Cl
TGI (XF 498 CNS): > 100 µM | TGI (SNB-78 CNS): > 100 µM | TGI (KM20L2 colon): > 100 µM | TGI (M19-MEL melanoma): > 100 µM | TGI (HOP-18 NSCLC): > 100 µM

Cn1nc(-c2ccccc2)c2c(/C=C/c3ccc(Cl)cc3)onc2c1=O
TGI (XF 498 CNS): 43.6 µM | TGI (KM20L2 colon): 69.5 µM | TGI (M19-MEL melanoma): > 100 µM | TGI (HOP-18 NSCLC): 26.8 µM | TGI (RXF-631 renal): > 100 µM

Cc1ccccc1C=NC12CC3CC(CC(C3)C1)C2
TGI (SNB-78 CNS): > 100 µM | TGI (KM20L2 colon): > 100 µM | TGI (M19-MEL melanoma): > 100 µM | TGI (HOP-18 NSCLC): > 100 µM | TGI (RXF-631 renal): > 100 µM

O=C(Nc1ccccc1)n1cc(-c2ccccn2)c(N2CCOCC2)n1
TGI (XF 498 CNS): > 100 µM | TGI (SNB-78 CNS): > 100 µM | TGI (KM20L2 colon): 8.69 µM | TGI (M19-MEL melanoma): > 100 µM | TGI (HOP-18 NSCLC): > 100 µM

CCC(C)C(=O)O[C@H]1C(=O)O[C@@H]2C[C@H]3C(C)=CC(=O)[C@@H](O)[C@]3(C)[C@H]3[C@@H](O)[C@H](O)[C@@]4(C)OC[C@]32[C@@H]14 (some centres undefined)
TGI (XF 498 CNS): 0.0819 µM | TGI (SNB-78 CNS): 0.394 µM | TGI (KM20L2 colon): 0.31 µM | TGI (M19-MEL melanoma): 0.0909 µM | TGI (HOP-18 NSCLC): 0.596 µM | TGI (MDA-N): 0.0543 µM

COC(=O)C(=O)C(C#N)c1cccc(Cl)c1 (centres undefined)
TGI (XF 498 CNS): > 100 µM | TGI (SNB-78 CNS): > 100 µM | TGI (KM20L2 colon): > 100 µM | TGI (M19-MEL melanoma): > 100 µM | TGI (HOP-18 NSCLC): > 100 µM

Cc1occc1C(=S)Nc1ccc(Cl)c(C(=O)OCC(C)C)c1
TGI (MDA-N): 47.8 µM

CC1NC(C(=O)O)Cc2cc(O)c(O)cc21 (centres undefined)
TGI (MDA-N): > 100 µM

N#CC(C(=O)CCC(=O)Nc1ccc(Cl)cc1)c1ccc(Cl)cc1 (centres undefined)
TGI (XF 498 CNS): > 100 µM | TGI (SNB-78 CNS): > 100 µM | TGI (KM20L2 colon): > 100 µM | TGI (M19-MEL melanoma): > 100 µM | TGI (HOP-18 NSCLC): > 100 µM | TGI (RXF-631 renal): > 100 µM

Cc1ccc(C(=O)C(c2nc3n(c2O)C(=N)N=N3)c2nc3n(c2O)C(=N)N=N3)cc1 (centres undefined)
TGI (XF 498 CNS): > 100 µM | TGI (SNB-78 CNS): > 100 µM | TGI (KM20L2 colon): > 100 µM | TGI (M19-MEL melanoma): > 100 µM

NC(CP(=O)(O)O)C(=O)O (centres undefined)
TGI (MDA-N): > 100 µM

CCc1cccc(C)c1N1C(=O)C(=O)C(c2nc3ccccc3o2)/C(=N/NC(=S)NN)C1=O (centres undefined)
TGI (XF 498 CNS): > 100 µM | TGI (SNB-78 CNS): > 100 µM | TGI (KM20L2 colon): > 100 µM | TGI (M19-MEL melanoma): > 100 µM | TGI (RXF-631 renal): > 100 µM

CC(=O)NC(CS)C(=O)O (centres undefined)
TGI (MDA-N): > 100 µM

O=C[C@]12CC=C3OC4OC5(CCCCC5)OC4[C@H]3[C@H]1C(=O)C=CC2=O (some centres undefined)
TGI (XF 498 CNS): 27.8 µM | TGI (SNB-78 CNS): 29.4 µM | TGI (M19-MEL melanoma): 54.5 µM | TGI (RXF-631 renal): > 100 µM

Cn1cnc([N+](=O)[O-])c1Sc1nc2ccccc2o1
TGI (XF 498 CNS): 19.7 µM | TGI (SNB-78 CNS): 32.3 µM | TGI (KM20L2 colon): 10.1 µM | TGI (M19-MEL melanoma): 23.7 µM | TGI (HOP-18 NSCLC): 1.36 µM | TGI (RXF-631 renal): 15.1 µM

N#CC(C#N)=Cc1ccc(C(O)P(=O)(O)O)cc1 (centres undefined)
TGI (XF 498 CNS): > 100 µM | TGI (SNB-78 CNS): > 100 µM | TGI (KM20L2 colon): > 100 µM | TGI (M19-MEL melanoma): > 100 µM | TGI (HOP-18 NSCLC): > 100 µM | TGI (RXF-631 renal): > 100 µM

CN1C(c2ccccc2)CC(C)(O)CC1c1ccccc1 (centres undefined)
TGI (SNB-78 CNS): > 100 µM | TGI (KM20L2 colon): > 100 µM | TGI (M19-MEL melanoma): > 100 µM | TGI (RXF-631 renal): > 100 µM

O=C1CC(C(=O)O)Cc2c(Br)ccc(O)c21 (centres undefined)
TGI (MDA-N): > 100 µM

O=C(CC(=O)N1N=C(n2ccc3ccccc32)CC1c1ccccc1)Nc1ccc(Cl)cc1 (centres undefined)
TGI (SNB-78 CNS): > 100 µM | TGI (KM20L2 colon): > 100 µM | TGI (M19-MEL melanoma): > 100 µM | TGI (HOP-18 NSCLC): > 100 µM | TGI (RXF-631 renal): > 100 µM

CC12CC/C(=N/NC(N)=O)C3C1CCCC32
TGI (KM20L2 colon): > 100 µM | TGI (M19-MEL melanoma): > 100 µM | TGI (HOP-18 NSCLC): > 100 µM | TGI (RXF-631 renal): > 100 µM

CCC1(OC(=O)CNC)C(=O)OCc2c1cc1n(c2=O)Cc2cc3ccccc3nc2-1 (centres undefined)
TGI (SNB-78 CNS): > 86.9 µM | TGI (KM20L2 colon): 2.05 µM | TGI (M19-MEL melanoma): 0.823 µM | TGI (HOP-18 NSCLC): 0.812 µM | TGI (MDA-N): 0.386 µM | TGI (RXF-631 renal): 0.0575 µM

CCOC(=O)NC(=O)c1cn(CCCCCCCCCCC(=O)NCCCN2CCN(CCCNC(=O)CCCCCCCCCCn3cc(C(=O)NC(=O)OCC)c(=O)[nH]c3=O)CC2)c(=O)[nH]c1=O
TGI (XF 498 CNS): > 100 µM | TGI (SNB-78 CNS): > 100 µM | TGI (KM20L2 colon): > 100 µM | TGI (M19-MEL melanoma): > 100 µM | TGI (HOP-18 NSCLC): > 100 µM

Cc1ccc(NC(=O)CCc2nnc3s/c(=C\c4cccc([N+](=O)[O-])c4)c(=O)n23)cc1
TGI (XF 498 CNS): > 100 µM | TGI (SNB-78 CNS): > 100 µM | TGI (KM20L2 colon): > 100 µM | TGI (M19-MEL melanoma): > 100 µM | TGI (HOP-18 NSCLC): > 100 µM | TGI (RXF-631 renal): > 100 µM

Cc1cc(Cl)ccc1NC(=O)CC1SC(=NC(=O)c2ccccc2Cl)NC1=O (centres undefined)
TGI (XF 498 CNS): 32.7 µM | TGI (SNB-78 CNS): 50.9 µM | TGI (KM20L2 colon): > 100 µM | TGI (M19-MEL melanoma): 35.8 µM

CC12CCCC(C#N)(C1)OC2=O (centres undefined)
TGI (XF 498 CNS): > 100 µM | TGI (SNB-78 CNS): > 100 µM | TGI (KM20L2 colon): > 100 µM | TGI (M19-MEL melanoma): > 100 µM | TGI (RXF-631 renal): > 100 µM

O=C(CCC(=O)Nc1ccc(Cl)cc1)CC(=O)c1ccc2ccccc2c1
TGI (SNB-78 CNS): > 100 µM | TGI (KM20L2 colon): > 100 µM | TGI (M19-MEL melanoma): > 100 µM | TGI (HOP-18 NSCLC): > 100 µM | TGI (RXF-631 renal): > 100 µM

CC(=O)n1nnc2ccc([N+](=O)[O-])cc21
TGI (XF 498 CNS): > 100 µM | TGI (SNB-78 CNS): > 100 µM | TGI (KM20L2 colon): > 100 µM | TGI (M19-MEL melanoma): > 100 µM | TGI (HOP-18 NSCLC): > 100 µM

C=C[C@H]1CN2CCc3c([nH]c4c([C@@H]5CCCN5C)c(O)ccc34)[C@@H]2C[C@@H]1C[C@H]1c2[nH]c3ccccc3c2CCN1C
GI50 (MDA-N): 1.5 µM | TGI (MDA-N): 3.06 µM and 3.3 µM

COc1ccc(Cc2cc(OC)c(OC)c(OC)c2)cc1
TGI (SNB-78 CNS): > 100 µM | TGI (M19-MEL melanoma): > 100 µM

CCOC(=O)C1=C(C)NC(C)=C(C(=O)OCCNC(=O)c2ccc(N=[N+]=[N-])cc2)C1c1ccccc1C(F)(F)F (centres undefined)
TGI (MDA-N): 21.5 µM

N#CCCN(C1=NN(C(=O)CC(=O)Nc2ccc(Cl)cc2)C(c2ccccc2)C1)c1ccc(Cl)cc1 (centres undefined)
TGI (XF 498 CNS): > 100 µM | TGI (SNB-78 CNS): > 100 µM | TGI (KM20L2 colon): > 100 µM | TGI (M19-MEL melanoma): > 100 µM | TGI (HOP-18 NSCLC): > 100 µM | TGI (RXF-631 renal): > 100 µM

C=C1C[C@@H](O)[C@@H](Br)C(C)(C)[C@]12CCC(C)(Br)C(Cl)C2 (some centres undefined)
GI50 (MDA-N): 17.7 µM | TGI (MDA-N): > 50 µM and 36.2 µM

O=C1c2cccc([N+](=O)[O-])c2C(=O)c2nccnc21
TGI (SNB-78 CNS): 7.38 µM | TGI (KM20L2 colon): 6.16 µM | TGI (M19-MEL melanoma): 0.276 µM | TGI (HOP-18 NSCLC): 3.06 µM

CC(=O)NNc1nc(C)c(C(/C=C/c2ccc(Cl)cc2)=N\N=C(N)N)s1
TGI (XF 498 CNS): > 100 µM | TGI (SNB-78 CNS): > 100 µM | TGI (KM20L2 colon): > 100 µM | TGI (M19-MEL melanoma): > 100 µM | TGI (RXF-631 renal): > 100 µM

C/C=C(\C)c1cc(=O)c2c(C)cc3c(c2o1)C(OC)(OC(C)=O)c1c(O)c(C2CC(C)(N(C)C)C(OC(C)=O)C(C)O2)cc(C2CC(N(C)C)C(OC(C)=O)C(C)O2)c1C3=O (centres undefined)
TGI (MDA-N): 4.71 µM

COC(=O)C1CC(c2ccc(Cl)cc2)=NO1 (centres undefined)
TGI (SNB-78 CNS): > 100 µM | TGI (KM20L2 colon): > 100 µM | TGI (M19-MEL melanoma): > 100 µM | TGI (HOP-18 NSCLC): > 100 µM

Cc1ccc2nc(Sc3c([N+](=O)[O-])ncn3C)[nH]c2c1
TGI (XF 498 CNS): 18.9 µM | TGI (SNB-78 CNS): 76.3 µM | TGI (KM20L2 colon): > 100 µM | TGI (M19-MEL melanoma): 57.2 µM | TGI (HOP-18 NSCLC): > 100 µM | TGI (RXF-631 renal): 32.3 µM

COc1ccc(NC(=S)C#N)cc1
TGI (MDA-N): > 100 µM

COc1cccc(N2C(=O)/C(=C/c3ccc(N(CCC#N)CCC#N)cc3)N=C2c2cc([N+](=O)[O-])ccc2Cl)c1
TGI (SNB-78 CNS): > 100 µM | TGI (KM20L2 colon): > 100 µM | TGI (HOP-18 NSCLC): > 100 µM | TGI (RXF-631 renal): > 100 µM
